In patent US9382254B2, “Compounds and pharmaceutical compositions thereof for the treatment of cystic fibrosis” (Galapagos NV, priority 2013, dated 2016):

Tests used:
CFTR G551D mutant = biological target: T1, CFTR G551D mutant (Homo sapiens, UniProt P13569, G551D); test: YFP-halide influx assay for the CFTR-G551D mutation; format: cell-based; details: HEK293 cells, forskolin 10.67 μM
T1 construct: expressed in transfected cells; host or cells: HEK293 (reverse transfection with plasmid)
Excerpt: The YFP halide influx assay measures the functionality of the cystic fibrosis Transmembrane Conductance regulator (CFTR) channels. The assay is used to evaluate the capacity of compounds to increase the channel opening of existing mutant CFTR channels in the membrane. It makes use of the observation that the yellow fluorescent protein (YFP) variant YFP H148Q, I152L, […] has its fluorescence substantially quenched by halide ions like Cl^− and I^−. (Galietta, Haggie, & Verkman, 2001)
For this purpose, HEK293-cells are seeded in 96 well plates. During seeding, the cells are reverse-transfected with plasmid vectors that direct the expression of the CFTR G551D mutant and of the YFP reporter. Cells are incubated at 37° C., 5% CO2 for 24 hours so as to allow for sufficient expression of the CFTR protein.
(§1) The I^−-induced quenching of fluorescence is recorded immediately after injection of I^− for 7 seconds. The capacity of a compound to increase the channel opening is directly correlated with the decrease in fluorescence, and is expressed as (1-(fluorescence after 7 seconds (F)/fluorescence before injection (F0))) and an EC50 can be derived from a (1-F/F0) vs compound concentration plot.

CFTR ΔF508 mutant = biological target: T2, CFTR ΔF508 mutant (Homo sapiens, UniProt P13569, DEL508-508); test: YFP-halide influx assay for the CFTR-ΔF508 mutation (384 well, FDSS/μCell); format: cell-based; details: CFBE41o- cells, CFTR-ΔF508, 1×D-PBS, fluorescence after 36 seconds
T2 construct: expressed in transfected cells; host or cells: CFBE41o- (adenoviral transduction)
Excerpt: The YFP halide influx assay measures the functionality of the cystic fibrosis Transmembrane Conductance regulator (CFTR) channels in the cystic fibrosis bronchial epithelium cell line CFBE41o-. The assay is used to evaluate the capacity of compounds to increase the open probability of existing CFTR channels in the membrane. It makes use of the observation that the yellow fluorescent protein (YFP) variant YFP H148Q, I152L has its fluorescence substantially quenched by halide ions like Cl— and I—. (Galietta, Haggie, & Verkman, 2001) (Nagai, et al., 2002)
For this purpose, CFBE41o-cells are seeded in 384 well plates (3000 CFBE cells/well). One day after seeding, the CFBE cells are transduced with adenoviral vectors that direct the expression of the CFTR ΔF508 mutant and of the YFP reporter. Cells are incubated at 27° C., 5% CO2 for 24 hours so as to allow for the proper folding and migration to the membrane of the CFTR channel or treated with a CFTR modulator during 24 h at 37° C.
as §1, with “I— induced” for “I^−-induced”, “recorded […]” for “recorded”, “I—” for “I^−”, “2 min on an FDSS/μCell (Hamamatsu).” for “7 seconds.”, “36” for “7”

T2 sequence (P13569 with tags, fused parts or gaps DEL508-508): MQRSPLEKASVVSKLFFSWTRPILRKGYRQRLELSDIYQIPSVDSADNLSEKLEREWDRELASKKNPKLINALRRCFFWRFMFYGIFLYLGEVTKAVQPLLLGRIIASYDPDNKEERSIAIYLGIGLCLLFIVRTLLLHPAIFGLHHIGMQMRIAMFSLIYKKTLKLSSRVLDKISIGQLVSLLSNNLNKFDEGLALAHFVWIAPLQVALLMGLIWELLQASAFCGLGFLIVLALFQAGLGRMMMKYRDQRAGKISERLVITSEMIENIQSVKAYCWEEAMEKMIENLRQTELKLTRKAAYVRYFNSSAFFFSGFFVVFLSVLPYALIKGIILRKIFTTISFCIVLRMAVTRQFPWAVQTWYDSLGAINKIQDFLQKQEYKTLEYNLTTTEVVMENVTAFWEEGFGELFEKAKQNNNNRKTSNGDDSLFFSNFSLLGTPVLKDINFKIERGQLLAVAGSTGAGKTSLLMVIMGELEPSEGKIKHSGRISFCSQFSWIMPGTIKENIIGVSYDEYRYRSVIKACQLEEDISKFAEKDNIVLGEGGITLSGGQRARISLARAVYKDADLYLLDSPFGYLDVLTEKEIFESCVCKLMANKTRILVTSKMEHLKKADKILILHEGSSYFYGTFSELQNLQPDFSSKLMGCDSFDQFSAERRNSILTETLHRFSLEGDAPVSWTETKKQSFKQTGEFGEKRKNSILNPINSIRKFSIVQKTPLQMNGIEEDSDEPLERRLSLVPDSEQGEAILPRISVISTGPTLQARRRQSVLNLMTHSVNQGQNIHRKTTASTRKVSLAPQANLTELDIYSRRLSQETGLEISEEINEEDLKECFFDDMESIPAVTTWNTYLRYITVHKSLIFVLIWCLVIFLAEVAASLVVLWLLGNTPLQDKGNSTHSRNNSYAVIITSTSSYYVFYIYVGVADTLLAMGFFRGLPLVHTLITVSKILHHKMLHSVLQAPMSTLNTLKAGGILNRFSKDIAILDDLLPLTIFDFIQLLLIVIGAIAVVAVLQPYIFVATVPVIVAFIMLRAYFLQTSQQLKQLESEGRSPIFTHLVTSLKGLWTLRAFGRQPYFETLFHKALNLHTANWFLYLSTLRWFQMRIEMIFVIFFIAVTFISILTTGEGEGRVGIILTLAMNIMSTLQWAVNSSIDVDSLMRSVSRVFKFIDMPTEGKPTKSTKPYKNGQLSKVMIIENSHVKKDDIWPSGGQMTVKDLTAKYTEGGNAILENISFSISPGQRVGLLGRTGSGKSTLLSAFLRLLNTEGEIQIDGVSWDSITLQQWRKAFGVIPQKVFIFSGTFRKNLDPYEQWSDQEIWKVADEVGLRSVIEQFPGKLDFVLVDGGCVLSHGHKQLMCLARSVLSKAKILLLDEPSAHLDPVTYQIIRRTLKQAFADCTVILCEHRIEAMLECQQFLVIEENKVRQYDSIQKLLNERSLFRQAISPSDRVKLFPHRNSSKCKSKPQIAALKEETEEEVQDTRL
T1 sequence (P13569 whole entry G551D): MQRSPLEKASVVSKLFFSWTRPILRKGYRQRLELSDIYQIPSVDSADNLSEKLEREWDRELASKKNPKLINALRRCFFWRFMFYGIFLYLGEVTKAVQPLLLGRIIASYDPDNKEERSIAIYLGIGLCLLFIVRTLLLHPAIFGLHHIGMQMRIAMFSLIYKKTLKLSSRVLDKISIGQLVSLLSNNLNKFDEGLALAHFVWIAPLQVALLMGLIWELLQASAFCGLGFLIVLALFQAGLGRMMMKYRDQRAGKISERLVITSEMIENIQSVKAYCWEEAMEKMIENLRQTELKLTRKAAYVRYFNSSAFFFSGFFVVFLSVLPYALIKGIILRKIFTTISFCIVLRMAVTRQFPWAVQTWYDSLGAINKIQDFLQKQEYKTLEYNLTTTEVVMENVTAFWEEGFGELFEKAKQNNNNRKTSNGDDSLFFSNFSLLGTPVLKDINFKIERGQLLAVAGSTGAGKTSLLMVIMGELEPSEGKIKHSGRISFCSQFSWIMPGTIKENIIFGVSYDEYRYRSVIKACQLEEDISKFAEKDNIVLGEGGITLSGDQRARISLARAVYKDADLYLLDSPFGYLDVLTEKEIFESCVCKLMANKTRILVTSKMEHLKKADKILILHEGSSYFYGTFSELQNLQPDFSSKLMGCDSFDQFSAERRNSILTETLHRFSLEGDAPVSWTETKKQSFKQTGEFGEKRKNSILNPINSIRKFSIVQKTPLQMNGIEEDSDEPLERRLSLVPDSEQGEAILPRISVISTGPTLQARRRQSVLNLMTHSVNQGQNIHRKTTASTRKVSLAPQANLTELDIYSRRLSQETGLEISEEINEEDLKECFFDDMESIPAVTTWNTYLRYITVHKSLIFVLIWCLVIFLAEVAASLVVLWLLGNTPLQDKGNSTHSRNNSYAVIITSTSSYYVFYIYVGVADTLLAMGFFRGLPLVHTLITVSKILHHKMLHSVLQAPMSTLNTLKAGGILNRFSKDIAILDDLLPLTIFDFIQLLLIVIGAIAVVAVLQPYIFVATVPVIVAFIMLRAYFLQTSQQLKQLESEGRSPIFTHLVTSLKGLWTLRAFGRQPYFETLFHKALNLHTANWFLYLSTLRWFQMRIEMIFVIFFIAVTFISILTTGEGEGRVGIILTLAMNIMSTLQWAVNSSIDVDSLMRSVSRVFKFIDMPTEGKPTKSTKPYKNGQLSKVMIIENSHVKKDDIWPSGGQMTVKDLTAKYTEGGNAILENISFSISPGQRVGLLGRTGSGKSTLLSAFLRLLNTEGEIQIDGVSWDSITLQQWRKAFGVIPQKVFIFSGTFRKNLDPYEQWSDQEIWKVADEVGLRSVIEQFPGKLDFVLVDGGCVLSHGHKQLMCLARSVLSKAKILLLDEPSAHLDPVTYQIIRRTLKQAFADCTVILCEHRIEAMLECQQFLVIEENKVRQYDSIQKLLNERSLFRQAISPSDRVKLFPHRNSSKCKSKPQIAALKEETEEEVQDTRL

Compound	EC50 (CFTR G551D mutant)	EC50 (CFTR G551D mutant; class symbol)	EC50 (CFTR ΔF508 mutant)
2-[[(2S)-2-hydroxy-3-methyl- butanoyl]amino]-5-[4- (trifluoromethyl)phenyl] sulfonyl-thiophene-3- carboxamide [Compound 366]	458 nM	100 to 500 nM	–
5-(4-chlorophenyl)sulfonyl-2- [[(2S)-2-hydroxy-3- methyl-butanoyl]amino] thiophene-3-carboxamide [Compound 367]	794 nM	500 to 1000 nM	–
5-(4-fluoro-2-(methoxymethyl) phenylsulfonyl)-2-(2-hydroxy- 2-methylpropanamido) thiophene-3-carboxamide [Compound 300]	1760 nM	> 1000 nM	–
5-[[5-bromo-6- (trifluoromethyl)-3-pyridyl] sulfonyl]-2-[(2-hydroxy-2- methyl-propanoyl)amino] thiophene-3-carboxamide [Compound 441]	–	> 1000 nM	–
CC(O)C(=O)Nc1sc(S(=O)(=O)c2ccc(Cl)cc2)cc1C(N)=O (single isomer, unassigned; enantiomer 1) [Compound 347]	1390 nM	–	19.1 nM
C[C@H](O)C(=O)Nc1sc(S(=O)(=O)c2ccc(F)cc2C(F)(F)F)cc1C(N)=O (single isomer, unassigned; enantiomer 1) [Compound 348]	2550 nM	–	16.4 nM
CC(C)C(O)C(=O)Nc1sc(S(=O)(=O)c2ccc(F)cc2)cc1C(N)=O (single isomer, unassigned; enantiomer 1) [Compound 352]	> 1340 nM	> 1000 nM	12.2 nM
CC(O)C(=O)Nc1sc(S(=O)(=O)c2ccc(F)cc2Cl)cc1C(N)=O (single isomer, unassigned; enantiomer 1) [Compound 353]	1720 nM	–	10.8 nM
CC(O)C(=O)Nc1sc(S(=O)(=O)c2c(Cl)cc(F)cc2Cl)cc1C(N)=O (single isomer, unassigned; enantiomer 1) [Compound 354]	1260 nM	–	–
CCc1ccccc1S(=O)(=O)c1cc(C(N)=O)c(NC(=O)C(C)O)s1 (stereo not shown) [Compound 312, 5-(2-Ethyl-benzenesulfonyl)-2-(2-hydroxy-propionylamino)-thiophene-3-carboxylic acid amide]	1820 nM	–	10.5 nM
CC(O)C(=O)Nc1sc(S(=O)(=O)c2c(F)cccc2F)cc1C(N)=O (stereo not shown) [Compound 313, 5-(2,6-Difluoro-benzenesulfonyl)-2-(2-hydroxy-propionylamino)-thiophene-3-carboxylic acid amide]	2930 nM	–	38.3 nM
C[C@H](O)C(=O)Nc1sc(S(=O)(=O)c2c(Cl)cccc2Cl)cc1C(N)=O [Compound 314, 5-(2,6-Dichloro-benzenesulfonyl)-2-((S)-2-hydroxy-propionylamino)-thiophene-3-carboxylic acid amide]	458 nM	–	7.5 nM
CC(C)Oc1ccc(S(=O)(=O)c2cc(C(N)=O)c(NC(=O)C(C)(C)O)s2)c(F)c1 [Compound 315, 5-(2-Fluoro-4-isopropoxy-benzenesulfonyl)-2-(2-hydroxy-2-methyl-propionylamino)-thiophene-3-carboxylic acid amide]	828 nM	–	42.4 nM
C[C@H](O)C(=O)Nc1sc(S(=O)(=O)c2ccc(OC(F)(F)F)cc2F)cc1C(N)=O [Compound 444, 5-[2-fluoro-4-(trifluoromethoxy)phenyl] sulfonyl-2-[[(2S)-2-hydroxypropanoyl]amino] thiophene-3-carboxamide]	–	–	19.6 nM
C[C@H](O)C(=O)Nc1sc(S(=O)(=O)c2ccc(C(F)(F)F)cc2F)cc1C(N)=O [Compound 445, 5-[2-fluoro-4-(trifluoromethyl)phenyl] sulfonyl-2-[[(2S)-2-hydroxypropanoyl]amino] thiophene-3-carboxamide]	–	–	19.6 nM
CC(C)(CO)C(=O)Nc1sc(S(=O)(=O)c2ccc(OC(F)(F)F)cc2)cc1C(N)=O [Compound 446, 2-[(3-hydroxy-2,2-dimethyl-propanoyl)amino]-5-[4-(trifluoromethoxy)phenyl] sulfonyl-thiophene-3-carboxamide]	–	–	41.3 nM
